Measured values published in patent US5349127A, “Expression of herbicide metabolizing cytochromes P450” (priority 1992, dated 1994).

Assays:
[1] = system: Tomato seedlings (Lycopersicon esculentum cv. Pixie); experiment: Tomato transplants in herbicide-treated soil after bacterial pretreatments (Example 18); format: in vivo; details: for Shoot Fresh Weight (mean of five plants): 22 days; for Shoot fresh weight in treatment C versus the other treatments: 32, 64 and 125 g ai/ha of 10001 or 16 and 32 g ai/ha of 10010
Description: One liter cultures of S. griseolus ATCC 11796, S. lividans pCAO200, S. lividans pCAO200-#9-SU1-FeS-B or S. lividans pCAO200-#12-SU1 were grown in YEME medium (sporulation broth for the S. griseolus culture) at 30° C. until the cultures were in late log phase of growth and the absorbance of each culture in a spectrophotometer at a wavelength of 600 nm was between 1.0 and 1.3. Tomato seedlings (Lycopersicon esculentum cv. "Pixie") were seeded directly into soiless media, Oasis Wedges® (Smithers-Oasis, Kent, Ohio), fertilized with 500 ppm Peter's® fertilizer (20:19:18); and 300 ppm of iron was added weekly. As the tomato plants develop, roots ramify through the Oasis Wedges®. The tomato plants were transplanted to pots when they were 4 inches tall as follows.
Five inch standard round pots (without holes) were filled with Sassafras sandy loam (ph 6.7, 0.8% OM) and a single Oasis cube and then treated preemergence with either Classic® (10001) 25 DF (16, 32, 64, 125 and 250 grams active ingredient/hectare [g ai/ha]) or Oust® (10010) 75 DF at rates of 4, 8, 16, 32 and 64 g ai/ha), both herbicides available from E. I. du Pont de Nemours and Company, Wilmington, Del. The oasis cube was then removed and replaced by a transplant tomato dipped in either the cultures described above of S. griseolus ATCC 11796 (treatment A), S. lividans pCAO200 (treatment B), S. lividans pCAO200-#9-SU1-FeS-B (treatment C), S. lividans pCAO200-#12-SU1 (treatment D) or into water (treatment E). Five transplants were tested for each treatment at each dosage rate. The pots were placed on a greenhouse bench for 22 days and watered twice daily, after which shoot fresh weights of treatments were determined. Roots of these treatments and controls were examined too. Plants, soil and pots treated with bacterial cultures were double bagged and disposed by incineration.

[2] = system: transformed tobacco seedlings; experiment: Growth of transformed tobacco seed on medium with 10001 (Example 24); format: in vivo, Nicotiana tabacum; details: AGS502 (no P450 gene), 100 days
Description: Tobacco seed from plants transformed with several P450SU1 and P450SU1+FeS-Bconstructions were tested for their ability to grow on tissue culture medium supplemented with compound 10001. Seed was placed on medium containing: 0, 5, 10, 20, and 40 nM of compound 10001. After 100 days, the plants were visually rated for their resistance (due to herbicide detoxification) to the herbicide treatment. All plants grown in the absence of herbicide and those treated with the lowest levels (5 nM and 10 nM) of 10001 had grown so large that no comparative rating was possible. The severely growth inhibited plants (those grown in the presence of 20 nM and 40 nM of compound 10001) were scored by comparing them to AGS502 plants (transformed without P450 gene) in Table 23.
SCORING SYSTEM: Visual comparison to AGS502 plants which uniformly appeared:
Ratings: 0=essentially identical to AGS 502 controls; 1=marginally larger ([…]1.2×) than AGS502; 2=clearly larger (1.2 to 2×) than AGS502; 3=substantially larger (>2×) than AGS502.

[3] = 16 g ai/ha, Pretreatment A (Streptomyces griseolus ATCC11796)
[4] = 16 g ai/ha, Pretreatment B (Streptomyces lividans pCAO200)
[5] = 16 g ai/ha, Pretreatment C (S. lividans pCAO200#9SU1-FeS-B)
[6] = 16 g ai/ha, Pretreatment D (S. lividans pCAO200#12SU1)
[7] = 16 g ai/ha, Pretreatment E (water)
[8] = 32 g ai/ha, Pretreatment A (Streptomyces griseolus ATCC11796)
[9] = 32 g ai/ha, Pretreatment B (Streptomyces lividans pCAO200)
[10] = 32 g ai/ha, Pretreatment C (S. lividans pCAO200#9SU1-FeS-B)
[11] = 32 g ai/ha, Pretreatment D (S. lividans pCAO200#12SU1)
[12] = 32 g ai/ha, Pretreatment E (water)
[13] = 64 g ai/ha, Pretreatment A (Streptomyces griseolus ATCC11796)
[14] = 64 g ai/ha, Pretreatment B (Streptomyces lividans pCAO200)
[15] = 64 g ai/ha, Pretreatment C (S. lividans pCAO200#9SU1-FeS-B)
[16] = 64 g ai/ha, Pretreatment D (S. lividans pCAO200#12SU1)
[17] = 64 g ai/ha, Pretreatment E (water)

Row | SMILES | Shoot Fresh Weight (mean of five plants) [1, 3] | Shoot Fresh Weight (mean of five plants) [1, 4] | Shoot Fresh Weight (mean of five plants) [1, 5] | Shoot Fresh Weight (mean of five plants) [1, 6] | Shoot Fresh Weight (mean of five plants) [1, 7] | Shoot fresh weight in treatment C versus the other treatments [1] | Shoot Fresh Weight (mean of five plants) [1, 8] | Shoot Fresh Weight (mean of five plants) [1, 9] | Shoot Fresh Weight (mean of five plants) [1, 10] | Shoot Fresh Weight (mean of five plants) [1, 11] | Shoot Fresh Weight (mean of five plants) [1, 12] | Shoot Fresh Weight (mean of five plants) [1, 13] | Shoot Fresh Weight (mean of five plants) [1, 14] | Shoot Fresh Weight (mean of five plants) [1, 15] | Shoot Fresh Weight (mean of five plants) [1, 16] | Shoot Fresh Weight (mean of five plants) [1, 17] | also measured
1 | CCOC(=O)c1ccccc1S(=O)(=O)NC(=O)Nc1nc(Cl)cc(OC)n1 [compound 10001, N-[(4-chloro-6-methoxy-pyrimidin-2-yl)aminocarbonyl]-2-ethoxycarbonylbenzenesulfonamide] | 0.88 grams | 0.67 grams | 1.63 grams | 0.62 grams | 1.67 grams | 2-3 times greater | 0.74 grams | 0.47 grams | 1.62 grams | 0.82 grams | 1.07 grams | 0.21 grams | 0.53 grams | 1.24 grams | 0.47 grams | 0.46 grams | Shoot Fresh Weight (mean of five plants) ([1]; 125 g ai/ha, Pretreatment A (Streptomyces griseolus ATCC11796)): 0.49 grams; Shoot Fresh Weight (mean of five plants) ([1]; 125 g ai/ha, Pretreatment B (Streptomyces lividans pCAO200)): 0.38 grams; Shoot Fresh Weight (mean of five plants) ([1]; 125 g ai/ha, Pretreatment C (S. lividans pCAO200#9SU1-FeS-B)): 1.01 grams; Shoot Fresh Weight (mean of five plants) ([1]; 125 g ai/ha, Pretreatment D (S. lividans pCAO200#12SU1)): 0.35 grams; Shoot Fresh Weight (mean of five plants) ([1]; 125 g ai/ha, Pretreatment E (water)): 0.23 grams; Shoot Fresh Weight (mean of five plants) ([1]; 250 g ai/ha, Pretreatment A (Streptomyces griseolus ATCC11796)): 0.44 grams; Shoot Fresh Weight (mean of five plants) ([1]; 250 g ai/ha, Pretreatment B (Streptomyces lividans pCAO200)): 0.25 grams; Shoot Fresh Weight (mean of five plants) ([1]; 250 g ai/ha, Pretreatment C (S. lividans pCAO200#9SU1-FeS-B)): 0.55 grams; Shoot Fresh Weight (mean of five plants) ([1]; 250 g ai/ha, Pretreatment D (S. lividans pCAO200#12SU1)): 0.26 grams; Shoot Fresh Weight (mean of five plants) ([1]; 250 g ai/ha, Pretreatment E (water)): 0.21 grams; appearance of AGS502 plants ([2]; 10001 20 nM): ~1 cm tall, 6 leaves ~1 cm diameter; appearance of AGS502 plants ([2]; 10001 40 nM): ~0.5 cm tall, 6 leaves ~0.3 cm diameter, chlorotic
2 | COC(=O)c1ccccc1S(=O)(=O)NC(=O)Nc1nc(C)cc(C)n1 [compound 10010, N-[(4,6-dimethylpyrimidin-2-yl)aminocarbonyl]-2-methoxycarbonylbenzenesulfonamide] | 0.32 grams | 0.65 grams | 0.98 grams | 0.56 grams | 0.39 grams | 2-3 times greater | 0.33 grams | 0.42 grams | 1.01 grams | 0.62 grams | 0.28 grams | 0.30 grams | 0.39 grams | 0.46 grams | 0.29 grams | 0.34 grams | Shoot Fresh Weight (mean of five plants) ([1]; 4 g ai/ha, Pretreatment A (Streptomyces griseolus ATCC11796)): 1.16 grams; Shoot Fresh Weight (mean of five plants) ([1]; 4 g ai/ha, Pretreatment B (Streptomyces lividans pCAO200)): 0.73 grams; Shoot Fresh Weight (mean of five plants) ([1]; 4 g ai/ha, Pretreatment C (S. lividans pCAO200#9SU1-FeS-B)): 0.88 grams; Shoot Fresh Weight (mean of five plants) ([1]; 4 g ai/ha, Pretreatment D (S. lividans pCAO200#12SU1)): 0.88 grams; Shoot Fresh Weight (mean of five plants) ([1]; 4 g ai/ha, Pretreatment E (water)): 2.00 grams; Shoot Fresh Weight (mean of five plants) ([1]; 8 g ai/ha, Pretreatment A (Streptomyces griseolus ATCC11796)): 0.58 grams; Shoot Fresh Weight (mean of five plants) ([1]; 8 g ai/ha, Pretreatment B (Streptomyces lividans pCAO200)): 0.69 grams; Shoot Fresh Weight (mean of five plants) ([1]; 8 g ai/ha, Pretreatment C (S. lividans pCAO200#9SU1-FeS-B)): 1.02 grams; Shoot Fresh Weight (mean of five plants) ([1]; 8 g ai/ha, Pretreatment D (S. lividans pCAO200#12SU1)): 0.75 grams; Shoot Fresh Weight (mean of five plants) ([1]; 8 g ai/ha, Pretreatment E (water)): 0.65 grams
